Like-named read-outs stand apart in the source and are kept apart here.
Legend:
[1] = test system: naïve human CD8 T cells; assay: CellTiter-Glo CD8 T cell proliferation assay; type: cell-based; conditions: Homo sapiens, read-out: CD8 GLO Normalized EC50
Experimental: Assay 4: CellTiter-Glo CD8 T Cell Proliferation Assay
Frozen naïve human CD8 T cells were thawed in RPMI+10% FBS, incubated for 2 h in 37° C., and counted. The 384-well tissue culture plate was coated overnight at 4° C. with 20 μl anti-human CD3 at 0.1 μg/mL in plain RPMI, which was removed off the plate before 20 k/40 μL CD8 T cells with 0.5 μg/ml soluble anti-human CD28 were added to each well. The compounds were echoed to the cell plate immediately after the cells were plated. After 72 h incubation at 37° C. incubator, 10 μL CellTiter-glo reagent (Promega catalog number G7570) was added to each well. The plate was vigorously shaken for 5 mins, incubated at room temperature for another 15 mins and read on Envision for CD8 T cell proliferation. In analysis, 0.1 μg/mL anti-CD3 and 0.5 μg/mL anti-CD28 stimulated CD8 T cell signal was background.

[2] = target: human DGKζ (Homo sapiens (Human), UniProt Q13574); assay: biochemical; type: biochemical; conditions: Table A; liposome (LIPGLO) assay; read-out: DGKζ
Sequence of human DGKζ (Q13574 whole entry, looked up): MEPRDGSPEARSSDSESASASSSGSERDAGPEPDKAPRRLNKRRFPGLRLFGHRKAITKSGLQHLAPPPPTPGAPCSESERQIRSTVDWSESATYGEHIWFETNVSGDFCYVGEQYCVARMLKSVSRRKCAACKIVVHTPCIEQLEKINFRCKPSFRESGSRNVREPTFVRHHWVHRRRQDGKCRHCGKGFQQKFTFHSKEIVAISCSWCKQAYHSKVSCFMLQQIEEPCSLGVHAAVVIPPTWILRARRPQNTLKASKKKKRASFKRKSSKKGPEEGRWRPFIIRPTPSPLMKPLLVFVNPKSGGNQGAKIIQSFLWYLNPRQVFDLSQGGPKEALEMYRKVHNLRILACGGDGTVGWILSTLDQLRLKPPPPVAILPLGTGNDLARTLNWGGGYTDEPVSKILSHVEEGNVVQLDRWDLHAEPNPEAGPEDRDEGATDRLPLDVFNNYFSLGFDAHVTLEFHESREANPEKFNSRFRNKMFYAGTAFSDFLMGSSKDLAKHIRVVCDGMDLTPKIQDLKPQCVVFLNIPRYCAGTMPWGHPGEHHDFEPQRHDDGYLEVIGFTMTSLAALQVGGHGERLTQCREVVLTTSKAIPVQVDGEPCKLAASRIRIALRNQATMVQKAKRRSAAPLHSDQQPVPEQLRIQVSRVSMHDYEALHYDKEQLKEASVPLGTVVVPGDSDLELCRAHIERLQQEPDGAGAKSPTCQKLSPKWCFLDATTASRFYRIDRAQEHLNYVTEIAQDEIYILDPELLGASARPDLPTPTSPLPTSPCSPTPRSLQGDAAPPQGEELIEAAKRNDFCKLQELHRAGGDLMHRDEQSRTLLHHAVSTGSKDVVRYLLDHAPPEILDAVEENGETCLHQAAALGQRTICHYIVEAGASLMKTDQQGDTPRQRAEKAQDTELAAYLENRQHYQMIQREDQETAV

[3] = target: Human DGKα(9-727) (Homo sapiens (Human), UniProt P23743); assay: biochemical; conditions: Table A; liposome (LIPGLO) assay; read-out: DGKα
Sequence of Human DGKα(9-727) (P23743 whole entry, looked up): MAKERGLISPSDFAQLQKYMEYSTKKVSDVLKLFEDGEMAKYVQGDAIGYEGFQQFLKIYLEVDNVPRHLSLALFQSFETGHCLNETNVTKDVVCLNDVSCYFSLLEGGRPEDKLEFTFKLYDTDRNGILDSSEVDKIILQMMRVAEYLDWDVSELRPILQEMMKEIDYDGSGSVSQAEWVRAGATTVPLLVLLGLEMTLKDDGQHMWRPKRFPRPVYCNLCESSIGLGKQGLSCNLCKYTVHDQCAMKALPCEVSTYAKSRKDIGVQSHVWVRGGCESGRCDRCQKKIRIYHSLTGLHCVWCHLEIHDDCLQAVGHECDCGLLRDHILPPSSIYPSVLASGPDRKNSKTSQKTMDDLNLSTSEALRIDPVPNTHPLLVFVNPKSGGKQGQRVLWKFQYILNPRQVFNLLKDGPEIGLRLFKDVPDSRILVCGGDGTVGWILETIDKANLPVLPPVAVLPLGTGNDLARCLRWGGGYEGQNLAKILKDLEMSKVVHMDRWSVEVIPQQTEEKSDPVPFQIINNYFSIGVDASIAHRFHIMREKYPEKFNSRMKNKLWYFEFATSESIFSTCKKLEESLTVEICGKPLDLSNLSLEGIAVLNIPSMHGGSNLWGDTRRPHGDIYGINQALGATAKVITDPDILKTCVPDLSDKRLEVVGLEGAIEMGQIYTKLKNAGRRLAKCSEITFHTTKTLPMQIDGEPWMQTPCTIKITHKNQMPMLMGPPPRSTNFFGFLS

[4] = test system: human venous whole blood, CD8 positive population (pERK); assay: DGK human whole blood pERK assay; type: cell-based
Summary of the method: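 Read-out is the pERK-positive fraction of CD8+ cells measured by flow cytometry. Donor venous blood (heparin) saw compound for one hour at 37° C before a 15-minute anti-CD3 challenge (1 μg/mL final) with cross-linking anti-mouse IgG.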

[5] = target: DGKα (Homo sapiens (Human), UniProt P23743); assay: biochemical; type: biochemical; conditions: Table A; liposome (LIPGLO) assay; read-out: DGKα
Sequence of DGKα (P23743 whole entry, looked up): as above

[6] = test system: Human venous whole blood (IFN-γ); assay: Human whole blood IFN-γ assay; type: cell-based
Experimental: Assay 10: Human Whole Blood IFN-γ Assay
Human venous whole blood (22.5 μL per well), obtained from healthy donors, was pre-treated with compounds for one hour at 37° C. in a humidified 95% air/5% CO2 incubator. The blood was stimulated with 2.5 μL anti-human CD3 and anti-CD28 mAb at a final concentration of 1 μg/mL each for 24 hours at 37° C. IFN-γ in the supernatants was measured using AlphLISA kit (Cat #AL217).

[7] = Homo sapiens, CD8 positive, human whole blood pERK, read-out: DGK HWB
[8] = read-out: INFg Whole Blood, human whole blood IFN-γ
[9] = human whole blood pERK, read-out: DGK HWB
[10] = read-out: DGK HWB, human whole blood pERK
[11] = Homo sapiens, read-out: INFg Whole Blood, human whole blood IFN-γ

Structure (SMILES): Cn1c(=O)c([N+](=O)[O-])c(N2CCC(Oc3cccc(C#N)c3)CC2)c2cc(F)ccc21 [Example 6, 3-((1-(6-fluoro-1-methyl-3-nitro-2-oxo-1,2-dihydroquinolin-4-yl)piperidin-4-yl)oxy)benzonitrile]
- EC50 [1]: 10 µM

Structure (SMILES): CC(C)c1ccc(OC2CCN(c3c([N+](=O)[O-])c(=O)n(C)c4ccc(F)cc34)CC2)cc1 [Example 2, 6-fluoro-4-(4-(4-isopropylphenoxy)piperidin-1-yl)-1-methyl-3-nitroquinolin-2(1H)-one]
- EC50 [1]: 0.34 µM

Structure (SMILES): CO[C@H]1CN(c2cc(=O)n(C)c3ccc(C#N)nc23)CC[C@@H]1Oc1ccc(OC(C)C)cn1 (single isomer, unassigned) [Example 269, (±)-trans-8-(4-((5-isopropoxypyridin-2-yl)oxy)-3-methoxypiperidin-1-yl)-5-methyl-6-oxo-5,6-dihydro-1,5-naphthyridine-2-carbonitrile]
- IC50 [2]: 1.5 µM
- IC50 [3]: 0.047 µM
- EC50 [4, 7]: 2.1 µM

Structure (SMILES): CC[C@@H]1CN(c2cc(=O)n(C)c3ccc(C#N)nc23)CC[C@H]1Oc1cccc(C(C)(C)C)c1 (single isomer, unassigned) [Example 197]
- IC50 [2]: 0.25 µM
- IC50 [3]: 0.0054 µM
- IC50 [5]: 0.011 µM
- EC50 ([4]; Homo sapiens, CD8 positive, read-out: DGK HWB, human whole blood pERK): 0.6 µM
- EC50 [6, 8]: 0.57 µM

Structure (SMILES): Cn1c(=O)c([N+](=O)[O-])c(N2CCC(Oc3cccc(F)c3)CC2)c2cc(F)ccc21 [Example 9, 6-fluoro-4-(4-(3-fluorophenoxy)piperidin-1-yl)-1-methyl-3-nitroquinolin-2(1H)-one]
- EC50 [1]: 0.79 µM

Structure (SMILES): Cn1c(=O)c([N+](=O)[O-])c(N2CCC(Oc3cccc4[nH]ncc34)CC2)c2cc(F)ccc21 [Example 5, 4-(4-((1H-indazol-4-yl)oxy)piperidin-1-yl)-6-fluoro-1-methyl-3-nitroquinolin-2(1H)-one]
- EC50 [1]: 10 µM

Structure (SMILES): CC1CN(c2c(C#N)c(=O)n(C)c3ccc(C#N)nc23)CCC1N(C)Cc1ccc(F)cc1 (single isomer, unassigned) [Example 323, 8-(4-((4-Fluorobenzyl)(methyl)amino)-3-methylpiperidin-1-yl)-5-methyl-6-oxo-5,6-dihydro-1,5-naphthyridine-2,7-dicarbonitrile]
- IC50 [2]: 18 µM
- IC50 [3]: 3.5 µM
- EC50 [4, 9]: 12 µM

Structure (SMILES): CC(C)Oc1ccc(OC2C[C@@H](C)N(c3nc(=O)n(C)c4ccc(C#N)nc34)C[C@H]2C)nc1 (single isomer, unassigned) [Example 244, (±)-Cis-(-4-((5-isopropoxypyridin-2-yl)oxy)-2,5-dimethylpiperidin-1-yl)-1-methyl-2-oxo-1,2-dihydropyrido[3,2-d]pyrimidine-6-carbonitrile]
- IC50 [2]: 0.92 µM
- IC50 [3]: 0.32 µM
- EC50 [4, 10]: 3.1 µM
- EC50 [6, 11]: 0.78 µM

Structure (SMILES): CC(C)Oc1ccc(OC2C[C@H](C)N(c3nc(=O)n(C)c4ccc(C#N)nc34)C[C@@H]2C)nc1 (mixture of isomers) [Example 246, (±)-Cis-(-4-((5-isopropoxypyridin-2-yl)oxy)-2,5-dimethylpiperidin-1-yl)-1-methyl-2-oxo-1,2-dihydropyrido[3,2-d]pyrimidine-6-carbonitrile]
- IC50 [2]: 0.87 µM
- IC50 [3]: 0.069 µM
- EC50 [4, 10]: 0.83 µM
- EC50 [6, 11]: 0.45 µM

Structure (SMILES): CO[C@@H]1CN(c2cc(=O)n(C)c3ccc(C#N)nc23)CC[C@H]1Oc1cccc(C(F)(F)F)c1 (single isomer, unassigned) [Example 261, (±)-trans-8-(3-methoxy-4-(3-(trifluoromethyl)phenoxy)piperidin-1-yl)-5-methyl-6-oxo-5,6-dihydro-1,5-naphthyridine-2-carbonitrile]
- IC50 [2]: 1.4 µM
- IC50 [3]: 0.2 µM
- EC50 [4, 7]: 1.5 µM

Structure (SMILES): CCC(C)(C)c1ccc(O[C@@H]2CCN(c3c(C#N)c(=O)n(C)c4ccc(C#N)nc34)C[C@H]2C)cc1 (single isomer, unassigned) [Example 231, 5-methyl-8-(trans-3-methyl-4-(4-(tert-pentyl)phenoxy)piperidin-1-yl)-6-oxo-5,6-dihydro-1,5-naphthyridine-2,7-dicarbonitrile (rel)]
- IC50 [2]: 83 µM
- IC50 [3]: 1.6 µM
- IC50 [5]: 0.49 µM
- EC50 [4, 7]: 0.4 µM
- EC50 ([6]; Homo sapiens, human whole blood IFN-γ, read-out: INFg Whole Blood): 0.51 µM

Structure (SMILES): CC1CN(c2cc(=O)n(C)c3ccc(C#N)nc23)CCC1N(C)C(=O)c1ccc(F)cc1 (single isomer, unassigned) [Example 286, N-(1-(6-Cyano-1-methyl-2-oxo-1,2-dihydro-1,5-naphthyridin-4-yl)-3-methylpiperidin-4-yl)-4-fluoro-N-methylbenzamide]
- IC50 [2]: 9.2 µM
- IC50 [3]: 5.2 µM
- EC50 [4, 9]: 8.7 µM

Structure (SMILES): CCO[C@H]1CN(c2cc(=O)n(C)c3ccc(C#N)nc23)CC[C@H]1Oc1cccc(C(F)(F)F)c1 (single isomer, unassigned) [Example 370, cis-8-(3-Ethoxy-4-(3-(trifluoromethyl)phenoxy)piperidin-1-yl)-5-methyl-6-oxo-5,6-dihydro-1,5-naphthyridine-2-carbonitrile]
- IC50 [2]: 5.6 µM
- IC50 [3]: 5.1 µM
- EC50 [4, 7]: 6.7 µM

Structure (SMILES): Cn1c(=O)c([N+](=O)[O-])c(N2CCC(Oc3cccc(Cl)c3)CC2)c2cc(F)ccc21 [Example 7, 4-(4-(3-chlorophenoxy)piperidin-1-yl)-6-fluoro-1-methyl-3-nitroquinolin-2(1H)-one]
- EC50 [1]: 2.3 µM

Structure (SMILES): CC1CN(c2c(C#N)c(=O)n(C)c3ccc(C#N)nc23)CCC1N(C)Cc1ccc(F)cc1 (single isomer, unassigned) [Example 325, 8-(4-((4-Fluorobenzyl)(methyl)amino)-3-methylpiperidin-1-yl)-5-methyl-6-oxo-5,6-dihydro-1,5-naphthyridine-2,7-dicarbonitrile]
- IC50 [2]: 50 µM
- IC50 [3]: 49 µM
- EC50 [4, 9]: 20 µM

Structure (SMILES): CC1CN(c2c(C#N)c(=O)n(C)c3ccc(C#N)nc23)CCC1N(C)Cc1ccc(F)cc1 (single isomer, unassigned) [Example 322, 8-(4-((4-Fluorobenzyl)(methyl)amino)-3-methylpiperidin-1-yl)-5-methyl-6-oxo-5,6-dihydro-1,5-naphthyridine-2,7-dicarbonitrile]
- IC50 [2]: 78 µM
- IC50 [3]: 6.8 µM
- EC50 [4, 7]: 20 µM

Structure (SMILES): CC1CN(c2cc(=O)n(C)c3ccc(C#N)nc23)CCC1N(C)C(=O)c1ccc(F)cc1 (single isomer, unassigned) [Example 284, N-(1-(6-Cyano-1-methyl-2-oxo-1,2-dihydro-1,5-naphthyridin-4-yl)-3-methylpiperidin-4-yl)-4-fluoro-N-methylbenzamide]
- IC50 [2]: 120 µM
- IC50 [3]: 23 µM
- EC50 [4, 9]: 20 µM

Structure (SMILES): CC(C)Oc1ccc(OC2C[C@@H](C)N(c3nc(=O)n(C)c4ccc(C#N)nc34)C[C@H]2C)nc1 (single isomer, unassigned) [Example 245, (±)-Cis-(-4-((5-isopropoxypyridin-2-yl)oxy)-2,5-dimethylpiperidin-1-yl)-1-methyl-2-oxo-1,2-dihydropyrido[3,2-d]pyrimidine-6-carbonitrile]
- IC50 [2]: 0.05 µM
- IC50 [3]: 0.43 µM
- EC50 [4, 10]: 0.8 µM
- EC50 [6, 8]: 0.41 µM

Structure (SMILES): CC1CN(c2c(C#N)c(=O)n(C)c3ccc(C#N)nc23)CCC1N(C)Cc1ccc(F)cc1 (single isomer, unassigned) [Example 324, 8-(4-((4-Fluorobenzyl)(methyl)amino)-3-methylpiperidin-1-yl)-5-methyl-6-oxo-5,6-dihydro-1,5-naphthyridine-2,7-dicarbonitrile]
- IC50 [2]: 130 µM
- IC50 [3]: 130 µM
- EC50 [4, 9]: 20 µM

Reference: US11964973B2 (priority 2019, dated 2024)
